Target: T1, tyrosinase (Homo sapiens, UniProt P14679)
T1 sequence (P14679 19-529): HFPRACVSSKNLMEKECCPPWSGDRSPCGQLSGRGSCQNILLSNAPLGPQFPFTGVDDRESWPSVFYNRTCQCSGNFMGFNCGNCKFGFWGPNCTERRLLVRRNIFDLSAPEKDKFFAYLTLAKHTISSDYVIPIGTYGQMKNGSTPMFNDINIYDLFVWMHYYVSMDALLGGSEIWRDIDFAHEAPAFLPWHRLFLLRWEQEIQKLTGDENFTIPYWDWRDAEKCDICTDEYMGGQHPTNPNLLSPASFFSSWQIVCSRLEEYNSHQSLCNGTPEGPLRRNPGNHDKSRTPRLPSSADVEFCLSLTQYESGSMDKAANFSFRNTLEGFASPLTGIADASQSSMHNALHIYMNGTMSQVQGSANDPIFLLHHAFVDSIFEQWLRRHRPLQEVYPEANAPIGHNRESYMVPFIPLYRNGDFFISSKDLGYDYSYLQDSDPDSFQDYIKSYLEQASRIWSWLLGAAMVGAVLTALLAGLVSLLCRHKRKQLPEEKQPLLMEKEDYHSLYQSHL
Assay: Tyrosinase inhibition
Format: biochemical
Conditions: 0.1 wt % active concentration; compared to 0.1 wt % kojic acid

Structure (SMILES) | tyrosinase inhibition activity compared to that of kojic acid
CC(C)/[N+]([O-])=C/c1ccc(O)cc1 [pHBz-IPHA, (Z)—N-(4-hydroxybenzylidene)propan-2-amine oxide] | about 60%
COc1cc(/C=[N+](\[O-])C(C)C)ccc1O [VAN-IPHA, (Z)—N-(4-hydroxy-3-methoxybenzylidine)propan-2-amine oxide] | negligible
